# Assay results taken from PMC6008492, “Structure activity relationship studies on rhodanines and derived enethiol inhibitors of metallo-β-lactamases” (Bioorganic & Medicinal Chemistry, 2018).
# Where two headings read alike, the source gives them in different places.
# How the values were obtained:
# TEM-1 = target: T1, TEM-1 (Escherichia coli, UniProt P62593); experiment: SBL inhibition, TEM-1; format: biochemical; settings: read-out: residual activity TEM-1
# T1 construct: made in house
# Description: (§1) Inhibition analyses against bacterial MBLs and SBLs were performed as described previously.[22], [24], [26] Residual enzyme activities were determined for a range of inhibitor concentrations. Non-linear regression fitting of IC50 curves was carried out using a three-parameter dose–response curve in GraphPad Prism. Errors in IC50 values are expressed as: σ(logIC50)/logIC50×IC50
# (§2) We first screened the inhibitors against a representative set of presently clinically important and other MBLs[22], comprising both Class B1 enzymes (NDM-1, New Delhi MBL-1; VIM-2, Verona integron–encoded MBL-2; BcII, Bacillus cereus II MBL; SPM-1, São Paulo MBL-1; IMP-1, imipenemase MBL-1) and the Class B2 MBL CphA (carbapenem hydrolysing MBL from Aeromonas hydrophila).[22] The latter MBL (CphA) only utilises one active site Zn(II) ion in catalysis, whilst the others normally use two Zn(II) ions. We also screened the inhibitors against a representative panel of SBLs from different classes (TEM-1, Temoneira β-lactamase-1, class A; CTX-M-15, cefotaxime hydrolysing β-lactamase from Munich 15, class A, extended spectrum β-lactamase (ESBL); AmpC E. coli, class C, and OXA-10, oxacillinase-10, class D).
# (§3) Figure S1. Residual activities of serine-β-lactamases (SBLs) upon inhibition by rhodanines and enethiols at
# (§4) Inhibition of intact rhodanine on a panel of SBLs
# (§5) Inhibition of intact rhodanine amide on a panel […]
# CTX-M-15 = target: T2, CTX-M-15 (Escherichia coli, UniProt Q9EXV5); experiment: SBL inhibition, CTX-M-15; format: biochemical; settings: read-out: residual activity CTX-M-15
# T2 construct: made in house
# T2 sequence (Q9EXV5 29-291, species assumed): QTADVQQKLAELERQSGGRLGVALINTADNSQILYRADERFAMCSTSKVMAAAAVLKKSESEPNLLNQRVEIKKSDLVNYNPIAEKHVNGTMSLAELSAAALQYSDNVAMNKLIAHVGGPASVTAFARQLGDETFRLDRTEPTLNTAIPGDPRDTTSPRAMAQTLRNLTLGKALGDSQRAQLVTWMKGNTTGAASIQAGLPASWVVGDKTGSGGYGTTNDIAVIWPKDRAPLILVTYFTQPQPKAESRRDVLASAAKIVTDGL
# Description: as §1, §2, §3, §4, §5
# AmpC = target: T3, AmpC (Escherichia coli, UniProt P00811); experiment: SBL inhibition, AmpC; format: biochemical, E. coli; settings: read-out: residual activity AmpC
# T3 construct: made in house
# T3 sequence (P00811 20-377): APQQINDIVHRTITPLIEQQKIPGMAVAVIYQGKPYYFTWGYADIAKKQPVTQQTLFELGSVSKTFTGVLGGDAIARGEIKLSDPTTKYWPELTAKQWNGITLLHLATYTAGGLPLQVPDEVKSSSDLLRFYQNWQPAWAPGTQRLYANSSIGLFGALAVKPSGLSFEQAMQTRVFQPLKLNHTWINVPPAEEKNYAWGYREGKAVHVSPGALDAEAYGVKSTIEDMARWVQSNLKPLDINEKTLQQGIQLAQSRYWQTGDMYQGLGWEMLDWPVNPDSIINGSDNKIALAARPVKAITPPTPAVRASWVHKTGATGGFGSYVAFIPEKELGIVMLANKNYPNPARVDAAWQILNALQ
# Description: as §1, §2, §3, §4, §5
# OXA-10 = target: T4, OXA-10 (Pseudomonas aeruginosa, UniProt P14489); experiment: SBL inhibition, OXA-10; format: biochemical; settings: read-out: residual activity OXA-10
# T4 construct: made in house
# T4 sequence (P14489 20-266, species assumed): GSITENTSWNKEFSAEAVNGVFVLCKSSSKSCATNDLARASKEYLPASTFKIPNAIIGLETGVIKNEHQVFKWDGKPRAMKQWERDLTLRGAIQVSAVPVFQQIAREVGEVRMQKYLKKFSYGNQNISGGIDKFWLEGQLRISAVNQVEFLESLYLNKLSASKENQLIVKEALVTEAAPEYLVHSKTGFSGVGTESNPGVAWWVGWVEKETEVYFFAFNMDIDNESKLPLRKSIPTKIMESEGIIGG
# Description: as §1, §2, §3, §4, §5
# SPM-1 = SPM-1 (Pseudomonas aeruginosa, UniProt Q8G9Q0); experiment: SPM-1 inhibition, fluorogenic cephalosporin (FC5) hydrolysis; format: biochemical; settings: for remaining activity at 100 µM: read-out: % Residual activity versus SPM-1
# SPM-1, sequence (Q8G9Q0 entry or part of it): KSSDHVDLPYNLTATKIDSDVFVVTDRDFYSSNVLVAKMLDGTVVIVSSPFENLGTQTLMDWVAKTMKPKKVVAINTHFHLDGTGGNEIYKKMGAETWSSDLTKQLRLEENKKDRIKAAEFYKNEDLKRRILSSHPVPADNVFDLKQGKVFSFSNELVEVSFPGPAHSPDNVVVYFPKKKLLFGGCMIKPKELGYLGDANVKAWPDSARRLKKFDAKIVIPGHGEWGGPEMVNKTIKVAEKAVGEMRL
# Description: as §1
# (§6) We first screened the inhibitors against a representative set of presently clinically important and other MBLs[22], comprising both Class B1 enzymes (NDM-1, New Delhi MBL-1; VIM-2, Verona integron–encoded MBL-2; BcII, Bacillus cereus II MBL; SPM-1, São Paulo MBL-1; IMP-1, imipenemase MBL-1) and the Class B2 MBL CphA (carbapenem hydrolysing MBL from Aeromonas hydrophila).[22] The latter MBL (CphA) only utilises one active site Zn(II) ion in catalysis, whilst the others normally use two Zn(II) ions.
# Figure S5: IC50 curves for SPM-1 inhibition time courses. Residual activities were calculated from the
# (§7) initial rate of FC5 hydrolysis after incubation of the enzyme with the inhibitor for 10 minutes. […]
# IMP-1 = target: T5, IMP-1 (Serratia marcescens, UniProt P52699); experiment: IMP-1 inhibition, fluorogenic cephalosporin (FC5) hydrolysis; format: biochemical; settings: for remaining activity at 100 µM: read-out: % Residual activity versus IMP-1
# T5 construct: made in house
# T5 sequence (P52699 19-246, looked up, species assumed): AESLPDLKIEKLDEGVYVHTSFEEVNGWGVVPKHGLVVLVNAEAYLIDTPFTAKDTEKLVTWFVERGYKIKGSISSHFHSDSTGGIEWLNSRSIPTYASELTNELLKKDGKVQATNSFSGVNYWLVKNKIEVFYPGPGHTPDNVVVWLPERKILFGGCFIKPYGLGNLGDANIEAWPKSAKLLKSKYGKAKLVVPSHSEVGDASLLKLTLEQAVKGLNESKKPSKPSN
# Description: as §1, §6
# Figure S3: IC50 curves for IMP-1 inhibition time courses. Residual activities were calculated from the
# initial rate of FC5 hydrolysis after incubation of the enzyme with the inhibitor for 10 minutes.
# BcII = target: T6, BcII (Bacillus cereus, UniProt P04190); experiment: biochemical; settings: for remaining activity at 100 µM: read-out: % Residual activity versus BcII
# T6 construct: made in house
# T6 sequence (P04190 31-257): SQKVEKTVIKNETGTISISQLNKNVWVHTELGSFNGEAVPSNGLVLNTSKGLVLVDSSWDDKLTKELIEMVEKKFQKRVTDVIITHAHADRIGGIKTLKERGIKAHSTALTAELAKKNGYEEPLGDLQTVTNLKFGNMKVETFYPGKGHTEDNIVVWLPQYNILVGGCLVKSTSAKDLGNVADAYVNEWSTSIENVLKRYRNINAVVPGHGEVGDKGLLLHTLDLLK
# Description: as §1, §6
# Figure S2: IC50 curves for BcII inhibition time courses. Residual activities were calculated from the initial
# rate of FC5 hydrolysis after incubation of the enzyme with the inhibitor for 10 minutes. […]
# VIM-2 = target: T7, VIM-2 (Escherichia coli, UniProt Q5U7L7); experiment: biochemical; settings: for remaining activity at 100 µM: read-out: % Residual activity versus VIM-2
# T7 construct: made in house
# Description: as §1, §2
# Figure S6: IC50 curves for VIM-2 inhibition time courses. Residual activities were calculated from the
# as §7
# NDM-1 = target: T8, NDM-1 (Klebsiella pneumoniae, UniProt C7C422); experiment: NDM-1 inhibition, fluorogenic cephalosporin (FC5) hydrolysis; format: biochemical; settings: for remaining activity at 100 µM: read-out: % Residual activity versus NDM-1
# T8 construct: made in house
# T8 sequence (C7C422 29-270, looked up, species assumed): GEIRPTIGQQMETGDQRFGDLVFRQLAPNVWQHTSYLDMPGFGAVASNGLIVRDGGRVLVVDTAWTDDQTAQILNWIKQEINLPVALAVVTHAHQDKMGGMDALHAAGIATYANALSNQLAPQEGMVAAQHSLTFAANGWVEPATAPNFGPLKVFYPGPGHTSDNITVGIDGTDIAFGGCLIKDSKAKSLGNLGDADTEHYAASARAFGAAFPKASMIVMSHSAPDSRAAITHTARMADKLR
# Description: as §1, §6
# Figure S4: IC50 curves for NDM-1 inhibition time courses. Residual activities were calculated from the
# as §7
# [1] = test system: MBLs (SPM-1, IMP-1, BcII, VIM-2, NDM-1); format: biochemical; settings: for MBL inhibition, result in words: at 100 µM
# Description: as §1, §2
# CphA = target: T9, CphA (Aeromonas hydrophila, UniProt P26918); experiment: CphA (subclass B2 MBL) inhibition; format: biochemical
# T9 construct: made in house
# T9 sequence (P26918 28-254): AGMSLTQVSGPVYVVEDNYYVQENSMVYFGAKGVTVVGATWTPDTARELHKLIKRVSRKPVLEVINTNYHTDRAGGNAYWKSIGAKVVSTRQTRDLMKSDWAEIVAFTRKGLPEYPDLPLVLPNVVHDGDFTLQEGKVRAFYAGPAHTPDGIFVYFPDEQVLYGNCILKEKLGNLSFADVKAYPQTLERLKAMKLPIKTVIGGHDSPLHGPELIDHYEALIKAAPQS
# Description: as §1, §2
# [2] = enethiols 6 assayed as sodium salts, 10 min incubation, read-out: IC50 SPM-1 (converted)
# [3] = enethiols 6 assayed as sodium salts, 10 min incubation, read-out: IC50 IMP-1 (converted)
# [4] = enethiols 6 assayed as sodium salts, 10 min incubation, read-out: IC50 BcII (converted)
# [5] = enethiols 6 assayed as sodium salts, 10 min incubation, read-out: IC50 VIM-2 (converted)
# [6] = enethiols 6 assayed as sodium salts, 10 min incubation, read-out: IC50 NDM-1
# [7] = lower end of the range, read-out: IC50 values from (lowest across the MBL panel)
# [8] = Table 2, read-out: IC50 versus SPM-1
# [9] = Table 2, read-out: IC50 versus BcII
# [10] = Table 2, read-out: IC50 versus CphA
# T1 sequence (P62593 24-286 limits assumed): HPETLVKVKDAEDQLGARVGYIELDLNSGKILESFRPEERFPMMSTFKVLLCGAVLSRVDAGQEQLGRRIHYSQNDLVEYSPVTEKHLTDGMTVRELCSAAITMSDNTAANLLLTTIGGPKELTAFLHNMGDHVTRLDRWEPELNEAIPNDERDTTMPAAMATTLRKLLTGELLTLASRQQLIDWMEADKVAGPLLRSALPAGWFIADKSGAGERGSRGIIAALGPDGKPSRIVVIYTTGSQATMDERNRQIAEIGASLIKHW
smiles,measurement,setting,value
CN1CCN(NC(=O)CN2C(=O)/C(=C/c3c4ccccc4cc4ccccc34)SC2=S)CC1 [Compound 5r],remaining activity at 200 µM,TEM-1,~6%
same,remaining activity at 200 µM,CTX-M-15,~40%
same,remaining activity at 200 µM,AmpC,~18%
same,remaining activity at 200 µM,OXA-10,~47%
CC1=N/C(=C\c2ccc(F)cc2)C(=O)O1 [Compound 16],remaining activity at 100 µM,SPM-1; at 100 µM,87 ± 1%
same,remaining activity at 100 µM,IMP-1; at 100 µM,100%
same,remaining activity at 100 µM,BcII; at 100 µM,92 ± 2%
same,remaining activity at 100 µM,VIM-2; at 100 µM,100%
same,remaining activity at 100 µM,NDM-1; at 100 µM,97 ± 2%
same,"MBL inhibition, result in words",[1],near inactive
O=C(O)/C(S)=C/c1cc(Cl)ccc1Cl [Compound 6o],IC50,SPM-1; [2],800 nM
same,IC50,IMP-1; [3],4700 nM
same,IC50,BcII; [4],1600 nM
same,IC50,VIM-2; [5],1500 nM
same,IC50,NDM-1; [6],45300 nM
same,IC50,[1]; [7],800 nM
O=C(O)/C(S)=C/c1c(F)cccc1F [Compound 6p],IC50,SPM-1; [2],60 nM
same,IC50,IMP-1; [3],200 nM
same,IC50,BcII; [4],100 nM
same,IC50,VIM-2; [5],200 nM
same,IC50,NDM-1; [6],21500 nM
same,IC50,[1]; [7],60 nM
"O=C(O)C(O)c1ccccc1 (centres unmarked) [Mandelic acid, reference compound]",IC50,SPM-1; [8],> 100000 nM
same,IC50,IMP-1,> 100000 nM
same,IC50,BcII; [9],> 100000 nM
same,IC50,VIM-2,> 100000 nM
same,IC50,NDM-1,> 100000 nM
same,IC50,CphA,> 100000 nM
same,"MBL inhibition, result in words",[1],inactive
"O=C(O)C(O)Cc1ccccc1 (centres unmarked) [3-Phenyllactic acid, reference compound]",IC50,SPM-1; [8],> 100000 nM
same,IC50,IMP-1,> 100000 nM
same,IC50,BcII; [9],> 100000 nM
same,IC50,VIM-2,> 100000 nM
same,IC50,NDM-1,> 100000 nM
same,IC50,CphA,> 100000 nM
same,"MBL inhibition, result in words",[1],inactive
Cc1cccc(C)c1/C=C(\S)C(=O)O [Compound 6q],IC50,SPM-1; [2],20 nM
same,IC50,IMP-1; [3],20 nM
same,IC50,BcII; [4],200 nM
same,IC50,VIM-2; [5],70 nM
same,IC50,NDM-1; [6],4900 nM
same,IC50,[1]; [7],20 nM
same,IC50,"[1]; upper end of the range, read-out: IC50 values to (highest across the MBL panel)",4900 nM
O=P(O)(O)C(O)c1ccc(Br)cc1F (centres unmarked) [Compound 22],remaining activity at 100 µM,SPM-1,92 ± 5%
same,remaining activity at 100 µM,IMP-1,100%
same,remaining activity at 100 µM,BcII,98 ± 2%
same,remaining activity at 100 µM,VIM-2,100%
same,remaining activity at 100 µM,NDM-1,100%
same,"MBL inhibition, result in words",[1],inactive
O=C(O)C(S)c1ccccc1 (centres unmarked) [Compound 13a],IC50,SPM-1; [8],50 ± 1 nM
same,IC50,IMP-1,70 ± 3 nM
same,IC50,BcII; read-out: IC50 versus BcII,100 nM
same,IC50,VIM-2,40 ± 1 nM
same,IC50,NDM-1,12900 ± 1000 nM
same,IC50,CphA; [10],71000 ± 1000 nM
O=C(O)/C(S)=C/c1ccccc1 [Compound 6a],IC50,SPM-1; [2],300 nM
same,IC50,IMP-1; [3],300 nM
same,IC50,BcII; [9],700 ± 200 nM
same,IC50,BcII; [4],700 nM
same,IC50,VIM-2; [5],400 nM
same,IC50,NDM-1; [6],7900 nM
same,IC50,CphA; [10],2100 ± 20 nM
CN1CCN(NC(=O)CN2C(=O)/C(=C/c3c(F)ccc(F)c3F)SC2=S)CC1 [Compound 5k],IC50,SPM-1; [2],1500 nM
same,IC50,IMP-1; [3],1600 nM
same,IC50,BcII; [4],3500 nM
same,IC50,VIM-2; [5],2600 nM
same,IC50,NDM-1; [6],40100 nM
same,IC50,"[1]; SPM-1, IMP-1, BcII, VIM-2, read-out: IC50 values for all the tested B1 subclass MBLs, with the exception of NDM-1",< 3500 nM
CN1CCN(NC(=O)CN2C(=O)/C(=C/c3c(Cl)cccc3Cl)SC2=S)CC1 [Compound 5m],IC50,SPM-1; [2],200 nM
same,IC50,IMP-1; [3],200 nM
same,IC50,BcII; [4],200 nM
same,IC50,VIM-2; [5],300 nM
same,IC50,NDM-1; [6],28400 nM
same,IC50,CphA,> 50000 nM
O=C(O)/C(O)=C/c1ccc(F)cc1 [Compound 17],remaining activity at 100 µM,SPM-1; at 100 µM,93 ± 2%
same,remaining activity at 100 µM,IMP-1; at 100 µM,100%
same,remaining activity at 100 µM,BcII; at 100 µM,90 ± 3%
same,remaining activity at 100 µM,VIM-2; at 100 µM,100%
same,remaining activity at 100 µM,NDM-1; at 100 µM,97 ± 4%
same,"MBL inhibition, result in words",[1],near inactive
